Test results reported in US20220249454A1, “INHIBITORS OF MONOCARBOXYLATE TRANSPORTERS FOR CANCER IMMUNOTHERAPY” (NIROGY THERAPEUTICS, INC., priority 2021, published 2022).

Tests used:
[1] = target: T1, monocarboxylate transporter 4 (MCT4) (Homo sapiens, UniProt O15427); conditions: literature value; cited from earlier work
T1 sequence (O15427 2-465 limits assumed): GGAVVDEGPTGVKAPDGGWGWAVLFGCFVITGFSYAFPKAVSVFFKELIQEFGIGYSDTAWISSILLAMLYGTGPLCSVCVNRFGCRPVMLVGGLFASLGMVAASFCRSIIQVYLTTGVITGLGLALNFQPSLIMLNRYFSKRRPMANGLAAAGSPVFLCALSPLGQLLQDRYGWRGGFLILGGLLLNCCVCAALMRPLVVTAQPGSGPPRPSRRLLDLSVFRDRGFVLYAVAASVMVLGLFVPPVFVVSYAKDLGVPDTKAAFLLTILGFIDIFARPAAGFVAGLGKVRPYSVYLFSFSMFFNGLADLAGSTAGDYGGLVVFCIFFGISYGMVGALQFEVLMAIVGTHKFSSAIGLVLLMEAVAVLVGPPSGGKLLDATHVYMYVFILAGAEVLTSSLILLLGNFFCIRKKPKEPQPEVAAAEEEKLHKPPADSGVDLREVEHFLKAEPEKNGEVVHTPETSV
T1 sequence (P35613 140-385 partner limits assumed): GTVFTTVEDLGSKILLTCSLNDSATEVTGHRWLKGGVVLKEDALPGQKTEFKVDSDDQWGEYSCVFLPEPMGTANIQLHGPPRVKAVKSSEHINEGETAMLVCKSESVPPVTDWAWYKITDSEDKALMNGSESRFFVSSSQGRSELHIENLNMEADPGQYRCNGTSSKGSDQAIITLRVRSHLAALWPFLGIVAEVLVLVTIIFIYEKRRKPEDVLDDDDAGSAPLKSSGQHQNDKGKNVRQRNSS

tumor cells = conditions: literature, Cell Reports 2019; cited from earlier work
[2] = target: T2, monocarboxylate transporter 1 (MCT1) (Homo sapiens, UniProt P53985); conditions: literature value; cited from earlier work
T2 sequence (P53985 1-500): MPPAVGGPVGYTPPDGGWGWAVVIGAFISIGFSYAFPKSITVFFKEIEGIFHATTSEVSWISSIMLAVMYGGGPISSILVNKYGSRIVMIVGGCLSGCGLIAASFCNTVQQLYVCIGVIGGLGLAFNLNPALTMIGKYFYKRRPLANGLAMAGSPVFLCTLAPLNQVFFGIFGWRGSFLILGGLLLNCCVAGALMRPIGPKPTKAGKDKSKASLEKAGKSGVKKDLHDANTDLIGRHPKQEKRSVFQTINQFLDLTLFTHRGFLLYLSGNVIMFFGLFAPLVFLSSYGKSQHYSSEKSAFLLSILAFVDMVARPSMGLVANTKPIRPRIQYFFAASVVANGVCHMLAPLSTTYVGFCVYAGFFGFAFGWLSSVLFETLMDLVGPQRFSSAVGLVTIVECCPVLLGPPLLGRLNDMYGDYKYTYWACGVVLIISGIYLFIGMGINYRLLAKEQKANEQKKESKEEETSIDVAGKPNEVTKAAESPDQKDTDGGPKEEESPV
T2 sequence (P35613 140-385 partner limits assumed): T1 sequence (P35613 140-385 partner limits assumed)

[3] = system: monocarboxylate transporters; experiment: Lactate detection assay in cancer cell lines (intracellular lactate, Lactate-glo); type: cell-based; conditions: 24 hours incubation
Experimental: Cells are maintained in their appropriate growth medium (RPMI medium with 2 g/L glucose, 2 mM L-glutamine supplemented with 10% FBS and P/S (growth medium). 15,000-25,000 cells were seeded into white 96-well plates in growth medium and incubated for 24 hours at 37° C. and 5% CO2. A duplicate plate was also seeded for normalization by an MTS assay. Dry weight compound stocks were dissolved to a concentration of 10 mM in 100% DMSO. Compounds were further diluted in the assay medium (Lactate media: 10 mM lactate, 5% FBS, and 1× P/S; Glucose media: RPMI, 5% FBS, and 1× P/S). Growth media was changed 24 hours later to assay medium containing 10 μM compound or vehicle (DMSO) control and incubated for 24 hours. Conditioned media was collected and the cells were washed in 200 μL ice-cold PBS. […] After a 5 minute incubation, 12.5 μL Neutralization solution (1M Trizma) is incubated for 1 minute. Intracellular lactate measurements were performed using a Lactate-glo kit (Promega). Briefly, the lactate detection reagent is mixed immediately before use and 50 μL is pipetted into each well and incubated at room temperature for 1 hour. Lactate is oxidized by enzymatic reactions to generate light. The luminescence is recorded using a Spectramax M5e plate reader and the concentration of lactate is determined using a known concentration of spiked lactate in PBS using GraphPad Prism.

[4] = system: panel of solid and haemotological tumor cell lines (e.g., Hs578t, SiHa, MDA-MB-231); experiment: MTS cell proliferation assay (cytotoxicity); type: cell-based; conditions: 72-96 hours, 10 mM lactate medium or RPMI 1640 medium, cell line not stated
Experimental: The anti-proliferation effect of MCT inhibition was investigated across a panel of solid and haemotological tumor cell lines. Cells were routinely cultured in their appropriate growth medium. On day 1, between 10,000-25,000 cells/well (e.g., Hs578t: 15,000 cells/well, SiHa: 10,000 cells/well, and MDA-MB-231: 25,000 cells/well) were plated into 96-well plates. 100 μL. of phosphate buffered saline solution was added to the external wells to prevent media evaporation. Plates were incubated in growth medium overnight at 37° C. in the presence of 5% CO2. On day 2, dry weight compound stocks were dissolved to a concentration of 10 mM in 100% DMSO. Compounds were further diluted in the assay medium; 10 mM lactate medium (without glucose, pyruvate, and glutamine) or RPMI 1640 medium (without pyruvate and glutamine) to generate a final dose range of 1 nM to 10 μM. Growth medium in the 96-well plate was replaced with the assay medium (10 mM lactate medium or RPMI medium or appropriate medium), and compounds were added to each well in the plate at different concentrations via serial dilution or pre-prepared solutions in assay medium. Plates were then incubated at 37° C. in the presence of 5% CO2 for a further 72-96 hours. On day 2-5, assay media was changed to 100 uL of DMEM/F12 and 20 μL of CellTiter 96 AQ MTS reagent was added to each well and the plate was returned to the incubator for 1-2 hours. MTS is bioreduced by NADPH or NADH produced by dehydrogenase enzymes in metabolically active cells into a coloured formazan product that is soluble in tissue culture medium. The amount of coloured formazan product is directly proportional to the number of living cells in culture. The absorbance of the plates was read on a Spectramax M5e plate reader using […] measurement wavelength. Dose response curves were plotted and IC50 values were calculated using GraphPad Prism. The IC50 value is equivalent to the concentration of compound that causes 50% inhibition of growth calculated from the compound treated signal to the vehicle treated signal.
Cytotoxicity of selected compounds is listed in Table 1, where IC50: A=<1 uM; B=1-10 uM; C=>10 uM; and NT=Not Tested.

| IC50 [3] | Structure (SMILES) | IC50 ([4]; Table 1 (Group 1)) | IC50 ([4]; Table 2 (Group 2)) | further results |
| --- | --- | --- | --- | --- |
|  | O=C(O)Cc1ccccc1Nc1c(Cl)cccc1Cl [diclofenac] |  |  | IC50 [1]: 140 nM; concentration required to see efficacy in in vitro models (tumor cells): 150 to 200 µM; IC50 [2]: 1400 nM |
| < 1 µM | COc1ccccc1C(=O)N(C)c1cc2oc(=O)c(C(=O)O)cc2s1 [Compound 1.017, 2-[(2-Methoxy-benzoyl)-methyl-amino]-5-oxo-5H-thieno[3,2-b]pyran-6-carboxylic acid] | < 1 µM |  |  |
| < 1 µM | CN(Cc1ccccc1)c1cc2oc(=O)c(C(=O)O)cc2s1 [Compound 1.001, 2-(benzyl(methyl)amino)-5-oxo-5H-thieno[3,2-b]pyran-6-carboxylic acid] | < 1 µM |  |  |
| < 1 µM | CN(Cc1ccc(F)cc1)c1cc2oc(=O)c(C(=O)O)cc2s1 [Compound 1.002, 2-((4-fluorobenzyl)(methyl)amino)-5-oxo-5H-thieno[3,2-b]pyran-6-carboxylic acid] | < 1 µM |  |  |
| < 1 µM | COc1cccc(C(=O)N(C)c2cc3oc(=O)c(C(=O)O)cc3s2)c1 [Compound 1.009, 2-(3-methoxy-N-methylbenzamido)-5-oxo-5H-thieno[3,2-b]pyran-6-carboxylic acid] | < 1 µM |  |  |
| < 1 µM | COc1cc(F)ccc1C(=O)N(C)c1cc2oc(=O)c(C(=O)O)cc2s1 [Compound 1.094, 2-(4-fluoro-2-methoxy-N-methylbenzamido)-5-oxo-5H-thieno[3,2-b]pyran-6-carboxylic acid] | < 1 µM |  |  |
|  | COc1cc(F)ccc1NC(=O)N(C)c1cc2oc(=O)c(C(=O)O)cc2s1 [Compound 2.015, 2-(3-(4-fluoro-2-methoxyphenyl)-1-methylureido)-5-oxo-5H-thieno[3,2-b]pyran-6-carboxylic acid] |  | < 1 µM |  |
|  | CC(C)c1csc(NC(=O)N(C)c2cc3oc(=O)c(C(=O)O)cc3s2)n1 [Compound 2.049, 2-(3-(4-isopropylthiazol-2-yl)-1-methylureido)-5-oxo-5H-thieno[3,2-b]pyran-6-carboxylic acid] |  | < 1 µM |  |
|  | CN(Cc1cc(C(F)(F)F)cc(C(F)(F)F)c1)c1cc2oc(=O)c(C(=O)O)cc2s1 [Compound 1.007, 2-((3,5-bis(trifluoromethyl)benzyl)(methyl)amino)-5-oxo-5H-thieno[3,2-b]pyran-6-carboxylic acid] | < 1 µM |  |  |
|  | CN(C(=O)c1ccccc1-c1ccc(F)cc1)c1cc2oc(=O)c(C(=O)O)cc2s1 [Compound 2.032, 2-(4′-fluoro-N-methyl-[1,1′-biphenyl]-2-carboxamido)-5-oxo-5H-thieno[3,2-b]pyran-6-carboxylic acid] |  | < 1 µM |  |
|  | CN(C(=O)NC1CCCC1)c1cc2oc(=O)c(C(=O)O)cc2s1 [Compound 2.027, 2-(3-cyclopentyl-1-methylureido)-5-oxo-5H-thieno[3,2-b]pyran-6-carboxylic acid] |  | < 1 µM |  |
|  | Cc1ccc(NC(=O)N(C)c2cc3oc(=O)c(C(=O)O)cc3s2)cc1 [Compound 2.033, 2-(1-methyl-3-(p-tolyl)ureido)-5-oxo-5H-thieno[3,2-b]pyran-6-carboxylic acid] |  | < 1 µM |  |
|  | CN(Cc1cccc(C(F)(F)F)c1)c1cc2oc(=O)c(C(=O)O)cc2s1 [Compound 1.006, 2-(methyl(3-(trifluoromethyl)benzyl)amino)-5-oxo-5H-thieno[3,2-b]pyran-6-carboxylic acid] | < 1 µM |  |  |
